{"source": "PubChem BioAssay (NCI)", "assay_in_all_cases": "inhibition of tumour cell growth, NCI panel, 48 h", "key": {"786-0 renal": {"system": "786-0 renal"}, "A498 renal": {"system": "A498 renal"}, "A549 NSCLC": {"system": "A549 NSCLC"}, "ACHN renal": {"system": "ACHN renal"}, "BT-549 breast": {"system": "BT-549 breast"}, "CAKI-1 renal": {"system": "CAKI-1 renal"}, "CCRF-CEM leukemia": {"system": "CCRF-CEM leukemia"}, "COLO 205 colon": {"system": "COLO 205 colon"}, "DU-145 prostate": {"system": "DU-145 prostate"}, "EKVX NSCLC": {"system": "EKVX NSCLC"}, "HCC-2998 colon": {"system": "HCC-2998 colon"}, "HCT-116 colon": {"system": "HCT-116 colon"}, "HCT-15 colon": {"system": "HCT-15 colon"}, "HL-60(TB) leukemia": {"system": "HL-60(TB) leukemia"}, "HOP-62 NSCLC": {"system": "HOP-62 NSCLC"}, "HOP-92 NSCLC": {"system": "HOP-92 NSCLC"}, "HS 578T breast": {"system": "HS 578T breast"}, "HT29 colon": {"system": "HT29 colon"}, "IGROV1 ovarian": {"system": "IGROV1 ovarian"}, "K-562 leukemia": {"system": "K-562 leukemia"}, "KM12 colon": {"system": "KM12 colon"}, "LOX IMVI melanoma": {"system": "LOX IMVI melanoma"}, "M14 melanoma": {"system": "M14 melanoma"}, "MALME-3M melanoma": {"system": "MALME-3M melanoma"}, "MCF7 breast": {"system": "MCF7 breast"}, "MDA-MB-231 breast": {"system": "MDA-MB-231 breast"}, "MDA-MB-435": {"system": "MDA-MB-435"}, "MDA-MB-468 breast": {"system": "MDA-MB-468 breast"}, "MOLT-4 leukemia": {"system": "MOLT-4 leukemia"}, "NCI-H226 lung": {"system": "NCI-H226 lung"}}, "note": "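Cells were grown in 96-well plates and exposed to each compound for 48 hours at five concentrations; endpoints were interpolated linearly between bracketing concentrations, or set to the highest concentration if not reached. GI50 is the concentration that inhibits growth by half. The concentration for full growth arrest is given as TGI.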", "data": [{"compound": "O=C(CN1CCN(c2ncnc3c2cnn3-c2ccccc2)CC1)Nc1nncs1", "values": [{"measurement": "GI50", "setting": "786-0 renal", "result": 1.99, "unit": "µM"}, {"measurement": "TGI", "setting": "786-0 renal", "result": 3.56, "unit": "µM"}, {"measurement": "GI50", "setting": "A498 renal", "result": 18.4, "unit": "µM"}, {"measurement": "TGI", "setting": "A498 renal", "result": 35, "unit": "µM"}, {"measurement": "GI50", "setting": "A549 NSCLC", "result": 2.07, "unit": "µM"}, {"measurement": "TGI", "setting": "A549 NSCLC", "result": 4.31, "unit": "µM"}, {"measurement": "GI50", "setting": "ACHN renal", "result": 1.79, "unit": "µM"}, {"measurement": "TGI", "setting": "ACHN renal", "result": 3.18, "unit": "µM"}, {"measurement": "GI50", "setting": "BT-549 breast", "result": 1.55, "unit": "µM"}, {"measurement": "TGI", "setting": "BT-549 breast", "result": 3.02, "unit": "µM"}, {"measurement": "GI50", "setting": "CAKI-1 renal", "result": 1.6, "unit": "µM"}, {"measurement": "TGI", "setting": "CAKI-1 renal", "result": 2.97, "unit": "µM"}, {"measurement": "GI50", "setting": "CCRF-CEM leukemia", "result": 2.55, "unit": "µM"}, {"measurement": "TGI", "setting": "CCRF-CEM leukemia", "result": 7.17, "unit": "µM"}, {"measurement": "GI50", "setting": "COLO 205 colon", "result": 14, "unit": "µM"}, {"measurement": "TGI", "setting": "COLO 205 colon", "result": 27, "unit": "µM"}, {"measurement": "GI50", "setting": "DU-145 prostate", "result": 1.8, "unit": "µM"}, {"measurement": "TGI", "setting": "DU-145 prostate", "result": 3.24, "unit": "µM"}, {"measurement": "GI50", "setting": "EKVX NSCLC", "result": 2.9, "unit": "µM"}, {"measurement": "TGI", "setting": "EKVX NSCLC", "result": 11.1, "unit": "µM"}, {"measurement": "GI50", "setting": "HCC-2998 colon", "result": 13.6, "unit": "µM"}, {"measurement": "TGI", "setting": "HCC-2998 colon", "result": 26.4, "unit": "µM"}, {"measurement": "GI50", "setting": "HCT-116 colon", "result": 3.75, "unit": "µM"}, {"measurement": "TGI", "setting": "HCT-116 colon", "result": 14.5, "unit": "µM"}, {"measurement": "GI50", "setting": "HCT-15 colon", "result": 1.79, "unit": "µM"}, {"measurement": "TGI", "setting": "HCT-15 colon", "result": 3.42, "unit": "µM"}, {"measurement": "GI50", "setting": "HL-60(TB) leukemia", "result": 10.4, "unit": "µM"}, {"measurement": "TGI", "setting": "HL-60(TB) leukemia", "result": 39.5, "unit": "µM"}, {"measurement": "GI50", "setting": "HOP-62 NSCLC", "result": 1.62, "unit": "µM"}, {"measurement": "TGI", "setting": "HOP-62 NSCLC", "result": 3.29, "unit": "µM"}, {"measurement": "GI50", "setting": "HOP-92 NSCLC", "result": 1.57, "unit": "µM"}, {"measurement": "TGI", "setting": "HOP-92 NSCLC", "result": 3.46, "unit": "µM"}, {"measurement": "GI50", "setting": "HS 578T breast", "result": 12.4, "unit": "µM"}, {"measurement": "TGI", "setting": "HS 578T breast", "result": 63, "unit": "µM"}, {"measurement": "GI50", "setting": "HT29 colon", "result": 6.91, "unit": "µM"}, {"measurement": "TGI", "setting": "HT29 colon", "result": 19.3, "unit": "µM"}, {"measurement": "GI50", "setting": "IGROV1 ovarian", "result": 2.68, "unit": "µM"}, {"measurement": "TGI", "setting": "IGROV1 ovarian", "result": 7.65, "unit": "µM"}, {"measurement": "GI50", "setting": "K-562 leukemia", "result": 7.91, "unit": "µM"}, {"measurement": "TGI", "setting": "K-562 leukemia", "result": 36.6, "unit": "µM"}, {"measurement": "GI50", "setting": "KM12 colon", "result": 4.46, "unit": "µM"}, {"measurement": "TGI", "setting": "KM12 colon", "result": 15.9, "unit": "µM"}, {"measurement": "GI50", "setting": "LOX IMVI melanoma", "result": 1.49, "unit": "µM"}, {"measurement": "TGI", "setting": "LOX IMVI melanoma", "result": 2.81, "unit": "µM"}, {"measurement": "GI50", "setting": "M14 melanoma", "result": 4.17, "unit": "µM"}, {"measurement": "TGI", "setting": "M14 melanoma", "result": 16.2, "unit": "µM"}, {"measurement": "GI50", "setting": "MALME-3M melanoma", "result": 1.69, "unit": "µM"}, {"measurement": "TGI", "setting": "MALME-3M melanoma", "result": 3.3, "unit": "µM"}, {"measurement": "GI50", "setting": "MCF7 breast", "result": 4.32, "unit": "µM"}, {"measurement": "TGI", "setting": "MCF7 breast", "result": 18, "unit": "µM"}, {"measurement": "GI50", "setting": "MDA-MB-231 breast", "result": 1.78, "unit": "µM"}, {"measurement": "TGI", "setting": "MDA-MB-231 breast", "result": 3.87, "unit": "µM"}, {"measurement": "GI50", "setting": "MDA-MB-435", "result": 13.6, "unit": "µM"}, {"measurement": "TGI", "setting": "MDA-MB-435", "result": 27.5, "unit": "µM"}, {"measurement": "GI50", "setting": "MDA-MB-468 breast", "result": 3.05, "unit": "µM"}, {"measurement": "TGI", "setting": "MDA-MB-468 breast", "result": 13.7, "unit": "µM"}, {"measurement": "GI50", "setting": "MOLT-4 leukemia", "result": 4.08, "unit": "µM"}, {"measurement": "TGI", "setting": "MOLT-4 leukemia", "result": 31.3, "unit": "µM"}, {"measurement": "GI50", "setting": "NCI-H226 lung", "result": 1.84, "unit": "µM"}]}]}
